Measurements: PMC8043168, “Tribolium castaneum defensin 1 kills Moraxella catarrhalisin an in vitro infection model but does not harm commensal bacteria” (Virulence, 2021)
Bridge positions count the residues as written; N and C are the ends.

What was measured:
M. catarrhalis = assay type: cell-based, Moraxella catarrhalis
Experimental: Colonies of M. catarrhalis were grown on sheep blood agar plates for 12 h at 37°C and 5% CO2 before transfer to brain heart infusion (BHI) medium (Carl Roth, Karlsruhe, Germany) at an initial concentration of 1.6 × 10^7 cells/ml (OD600 = 0.08) as determined using an Ultraspec 10 cell densitometer (Amersham BioSciences, Little Chalfont, UK). Bacteria were cultivated in a shaking incubator at 37°C until the concentration reached 1.2 × 10^8 cells/ml (OD600 = 0.6) and then diluted to 2 × 10^6 cells/ml (OD600 = 0.011). To establish the optimal concentration ranges for AMP activity, defensin 1 was prepared as a two-fold dilution series from 12.5 µM to 1.56 µM and was added to the bacterial cultures, which were incubated as above for a further 16 h. Untreated cultures were used as controls. The OD600 was measured automatically at 30-min intervals using an Infinite M200 Pro plate reader (Tecan Life Sciences, Männedorf, Switzerland). […] They were cultivated for a further 15 h at 37°C and 5% CO2 in serial dilution before manual counting of the colonies on each plate.
Table S1. Detailed characterization of tested AMPs. M.c. were grown to an Optical Density (OD) 600nm of 0.6 in Brain Heart Infusion (BHI) Medium.
Upon dilution to OD600nm= 0.01, M.c. were incubated with declining amounts of indicated AMPs (25 μM to 0.048 μM at halving intervals) at 37°C with 5% CO2.
OD600nm was measured at 30 min intervals to establish the minimal inhibitory concentration (MIC). pI = isoelectric point, MW = molecular weight in kiloDalton.
MIC AMP name AMP class Organism Amino Acid Sequence pIMWPurity Retention time [min] modification
0.195 µM Cecropin A α-helical Hyalophora cecropia […] 10.75 4.00 91.06 7.30 n-term. amidation
0.39 µM Sarcotoxin IA α-helical Sarcophaga peregrina […] 11.07 4.16 91.37 9.37 n-term. amidation
~ 25µM Stomoxyn α-helical Stomoxys calcitrans […] 11.26 4.40 95.34 10.08 n-term. amidation
~ 25µM Spinigerin linear Pseudacanthotermes spiniger […] 11.07 3.00 96.23 12.45 none
>25µM Apidaecin Ia proline-rich Apis mellifera GNNRPVYIPQPRPPHPRI 11.71 2.11 92.98 16.91 none
>25µM Drosocin proline-rich Drosophila melanogaster GKPRPYSPRPTSHPRPIRV 12.01 2.20 92.86 11.65 none
>25µM Pyrrhocoricin proline-rich Pyrrhocoris apterus […] 10.27 2.34 93.17 11.38 none
>25 µM Metalnikowin-1 proline-rich Palomena prasina […] 9.98 1.84 92.85 13.36 none
>25 µM Metalnikowin-2A proline-rich Palomena prasina […] 9.98 1.84 92.39 10.85 none
>25 µM Metchnikowin-1 proline-rich Drosophila melanogaster […] 10.74 3.03 99.06 11.50 none
>25 µM Metchnikowin-2 proline-rich Drolophila melanogaster […] 11.54 3.04 97.16 11.46 none
12.5 µM Defensin 1 disulfide stabilized Tribolium castaneum […] 9.7 4.83 90.53 18.41 none
~ 25 µM Cecropin-like α-helical Lucilia sericata[…] 10.35 6.66 90.28 12.01 none
0.195 µM Cecropin α-helical Galleria mellonella […] 10.21 4.21 93.61 12.33 n-term. amidation
0.37 µM Cecropin α-helical Lucilia sericata […] 10.56 4.26 94.31 10.83 n-term. amidation
12.5 µM Stomoxyn α-helical Lucilia sericata […] 10.73 4.38 90.37 13.35n-term. amidation n-term.
1.56 µM Cecropin(Sarcotoxin) α-helical Eristalis tenax […] 10.56 4.14 90.80 9.76 none

macrophages = conditions: cited from earlier work
Description: Defensin 1 limited the expressio ...

[1] = test system: BDMs infected with M. catarrhalis; assay: qRT-PCR of cytokine mRNA in infected BDMs; assay type: cell-based, human; conditions: defensin 1 12.5 µM given 1 or 5 h after infection, MOI 0.5 or 1; collected 16 h post-infection
Experimental: BDMs were infected with M. catarrhalis as described above and the cells and supernatant were collected 16 h post-infection. Total RNA was isolated by phenol-chloroform extraction followed by reverse transcription using the High-Capacity RNA-to-cDNA kit (Thermo Fisher Scientific, Waltham, MA, USA). Quantitative real-time PCR (qRT-PCR) was performed with the following specific primer pairs to measure the expression of IL-1β (forward primer 5′-AGCTCGCCAGTGAAATGATGG-3′ and reverse primer 5′-CAGGTCCTGGAAGGAGCACTTC-3′), IL-8 (forward primer 5′-ACTGAGAGTGATTGAGAGTGGAC-3′ and reverse primer 5′-AACCCTCTGCACCCAGTTTTC-3′), and RPS18 (forward primer 5′-GCGGCGGAAAATAGCCTTTG-3′ and reverse primer 5′-GATCACACGTCCACCTCATC-3′).

BDMs activated by LPS = assay: Sterile activation of BDMs by LPS; assay type: cell-based, human; conditions: defensin 1 added 1 h after LPS
Experimental: The presence of cytokines in the BDM supernatant after infection and treatment with 12.5 µM defensin 1 was assessed using the MAGPIX Multiplex ELISA (Luminex, Austin, TX, USA). BDM supernatants were prepared as recommended for the MAGPIX system. The cytokine panel comprised MIP1-α, MCP1, IL-1β, IL-6, IL-8, IL-10, IL-12p70, IL-23, LAP and TNF-α.
Statistical interpretation of the multiplex ELISA data required the incorporation of data points outside the detection range and adjustments for the effect of parallel technical measurements from the same biological samples. We therefore used the Hodges and Lehmann nonparametric aligned ranks test to compare cytokine secretion by treatment time within treatment groups and between the following control and treatment groups: […]

[2] = up to a concentration of 100 µM; cited from earlier work

H-VTCDLLSAEAKGVKVNHAACAAHCLLKRKRGGYCNKRRICVCRN-OH (disulfide 3-34, 20-40, 24-42 (inferred)) [Defensin 1]
MIC (minimal inhibitory concentration) (M. catarrhalis; 12 h): 12.5 µM
concentration that completely abolished/inhibited the growth of M. catarrhalis (M. catarrhalis; growth curve in BHI, two-fold dilution series, 37°C, 16 h, OD600 every 30 min): 12.5 µM
toxicity toward macrophages (macrophages): nontoxic
IL-1β expression (mRNA, qRT-PCR) [1]: limited the expression
IL-8 expression (mRNA, qRT-PCR) [1]: limited the expression
sterile activation of BDMs by LPS in presence of peptide (BDMs activated by LPS): not significantly affected
hemolytic activity [2]: minimal hemolytic activity
